Experimental data from patent US11226337B2, “Chemoproteomic profiling of protein electrophilic and oxidative post-translational modifications” (Zenagem, LLC, priority 2017, dated 2022).

How the values were obtained:
Experiment in all cases: SILAC RP-ABPP
Assay type in all cases: cell-based
[1] = molecular target: T1, CTSZ Cathepsin Z (Q9UBR2) (Homo sapiens, UniProt Q9UBR2); details: SILAC H/L, MDA-MB-231
T1 construct: In Situ Labelling of Cells with Hydrazine Probes for MS Experiments; endogenous in cells; host or cells: HEK293T and MDA-MB-231
Procedure: (§1) For MS-based experiments, labelling was performed in a similar manner as described above in Example 2, maintaining the same concentrations of probes. Modifications to this protocol included using isotopically ‘light’ and ‘heavy’ SILAC cells that were also grown to near complete confluence prior to treatment. Isotopically light cells were treated with the non-clickable hydrazine probe (at the same concentration as the probe in ‘enrichment’ experiments) or the probe in the presence of 10-fold excess non-clickable hydrazine probe as a competitor (in ‘competition’ experiments). Isotopically heavy cells were treated with the probe for both types of experiments. These treatments were performed in non-SILAC media. Following treatments, cells were washed with cold PBS to remove the probe-containing media, harvested by scraping, collected by centrifugation (1,400 g, 3 min, 4° C.), washed again by resuspension in cold PBS and frozen as pellets at −80° C. until use.
(§2) The fractionated equimolar mixture of heavy and light soluble proteomes (1-1.5 mg) was diluted to 1 mL in PBS. Click reactions were scaled accordingly (except for biotin-azide) to maintain final concentrations of 0.1 mM TBTA, 1 mM CuSO4, 100 μM biotin-azide (10 mM in DMSO) and 1 mM TCEP. The mixture was vortexed and placed on a rotator at ambient temperature for 1 hour. Sequential addition of and mixture with pre-chilled methanol (MeOH, 2 mL), chloroform (CHCl3, 0.5 mL) and PBS (1 mL) on ice quenched the reaction. The precipitated proteome was centrifuged (5,000 g, 10 min, 4° C.) to fractionate the protein interphase from the organic and aqueous solvent layers. The protein pellet was washed with cold 1:1 MeOH:CHCl3 (3×1 mL), mildly sonicated in cold 4:1 MeOH:CHCl3 (2.5 mL) and pelleted once more by centrifugation (5,000 g, 10 min, 4° C.) to ensure click reagents were efficiently removed.
(§3) Heavy and light parent ion chromatograms associated with successfully identified peptides were extracted and compared using CIMAGE software as previously described^69. At least one ion of a co-eluting heavy-light pair must be accurately identified from a fragmentation event that occurred within the retention time window (±10 min) of parent ion elution. To ensure that the correct pair of peaks is quantified, chromatograms are extracted within a 10 ppm error tolerance of the predicted m/z, the signal-to-noise ratio must be >2.5 and the ‘co-elution correlation score’ and ‘envelope correlation score’ must have R^2 values ≥0.8. In addition, peptides detected as ‘singletons,’ where only the heavy ion of a peptide pair was identified, but for which passed all other filtering parameters, are given a default assigned ratio of ‘20,’ which is defined as any measured ratio that is ≥20.
(§4) To further eliminate false positives and any stochastic variability in the data, protein ratios were then determined by the median peptide ratio derived from three or more unique quantified peptides. Protein ratios that complied with these criteria from a single experiment were then averaged with ratios acquired from ≥3 replicates to provide final values for each type of experiment in both cell lines with both probes. […] Most importantly, there are no robustly measured ratios for proteins identified as probe 1 targets that had measured ratios of ˜1 with probe 2. Probe targets in HEK293T and MDA-MB-231 cells represent data combined from ≥3 independent biological replicates with each cell type performed with several independent batches of synthesized probes over a period of almost two years. […]

[2] = molecular target: T2, NT5DC2 5nucleotidase domaincontaining (Q9H857) (Homo sapiens, UniProt Q9H857); details: SILAC H/L, HEK293T
T2 construct: shared by both the endogenous and recombinant forms of these proteins; endogenous in cells; host or cells: HEK293T and MDA-MB-231
T2 sequence (Q9H857 1-520): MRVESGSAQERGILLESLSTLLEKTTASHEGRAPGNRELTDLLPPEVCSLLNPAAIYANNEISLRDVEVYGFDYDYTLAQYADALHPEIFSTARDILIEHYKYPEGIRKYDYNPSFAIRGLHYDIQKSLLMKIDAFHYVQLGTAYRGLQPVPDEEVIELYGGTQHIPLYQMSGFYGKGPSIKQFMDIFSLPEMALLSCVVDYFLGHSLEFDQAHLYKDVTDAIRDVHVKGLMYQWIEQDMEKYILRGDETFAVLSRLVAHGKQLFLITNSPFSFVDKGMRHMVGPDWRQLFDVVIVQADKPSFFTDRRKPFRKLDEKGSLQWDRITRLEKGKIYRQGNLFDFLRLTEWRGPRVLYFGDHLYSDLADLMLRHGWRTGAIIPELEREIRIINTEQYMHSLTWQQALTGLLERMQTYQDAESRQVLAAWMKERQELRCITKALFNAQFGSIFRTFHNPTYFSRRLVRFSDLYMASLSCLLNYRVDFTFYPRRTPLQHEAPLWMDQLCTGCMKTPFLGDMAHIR
Procedure: as §1, §2, §3, §4

[3] = molecular target: T3, LGALS3BP Galectin3binding protein (Q08380) (Homo sapiens, UniProt Q08380); details: SILAC H/L, MDA-MB-231
T3 construct: In Situ Labelling of Cells with Hydrazine Probes for MS Experiments; endogenous in cells
T3 sequence (Q08380 19-585): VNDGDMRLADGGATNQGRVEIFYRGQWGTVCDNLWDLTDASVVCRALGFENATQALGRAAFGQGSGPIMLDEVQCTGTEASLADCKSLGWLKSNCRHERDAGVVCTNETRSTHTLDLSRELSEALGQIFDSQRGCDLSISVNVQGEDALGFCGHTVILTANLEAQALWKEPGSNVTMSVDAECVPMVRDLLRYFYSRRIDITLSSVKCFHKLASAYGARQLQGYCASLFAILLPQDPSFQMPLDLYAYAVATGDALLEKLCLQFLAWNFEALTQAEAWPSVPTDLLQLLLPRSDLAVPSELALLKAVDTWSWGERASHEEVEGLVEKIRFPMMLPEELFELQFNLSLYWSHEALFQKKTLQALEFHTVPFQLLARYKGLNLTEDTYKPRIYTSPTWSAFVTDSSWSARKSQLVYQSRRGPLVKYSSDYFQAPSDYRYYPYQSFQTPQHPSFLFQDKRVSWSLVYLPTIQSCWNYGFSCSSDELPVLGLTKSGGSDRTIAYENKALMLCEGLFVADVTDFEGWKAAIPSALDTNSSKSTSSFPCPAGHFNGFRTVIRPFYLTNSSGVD
Procedure: as §1, §2, §3, §4

T1 sequence (Q9UBR2 62-303): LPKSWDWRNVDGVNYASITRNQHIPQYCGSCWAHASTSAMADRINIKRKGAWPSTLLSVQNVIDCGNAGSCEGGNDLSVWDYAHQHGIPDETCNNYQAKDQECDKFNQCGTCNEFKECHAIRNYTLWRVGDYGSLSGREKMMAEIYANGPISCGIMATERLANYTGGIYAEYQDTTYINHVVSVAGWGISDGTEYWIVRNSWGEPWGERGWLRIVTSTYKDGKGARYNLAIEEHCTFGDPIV

Compound	enrichment ratioavg ([1]; probe 1 3 mM 0.5 h vs probe 3)	competition ratioavg ([1]; probe 1 vs probe 1+10x probe 3)	enrichment ratioavg ([2]; probe 1 3 mM 0.5 h vs probe 3)	competition ratioavg ([2]; probe 1 vs probe 1+10x probe 3)	enrichment ratioavg ([3]; probe 1 3 mM 0.5 h vs probe 3)	competition ratioavg ([3]; probe 1 vs probe 1+10x probe 3)	enrichment ratioavg ([1]; probe 2 1 mM 0.5 h vs probe 4)	competition ratioavg ([1]; probe 2 vs probe 2+10x probe 4)	enrichment ratioavg ([2]; probe 2 1 mM 0.5 h vs probe 4)	competition ratioavg ([2]; probe 2 vs probe 2+10x probe 4)	enrichment ratioavg ([3]; probe 2 1 mM 0.5 h vs probe 4)	competition ratioavg ([3]; probe 2 vs probe 2+10x probe 4)
C#CCNN.Cl [probe 1, prop-2-yn-1-ylhydrazine hydrochloride]	13	3	11	3	7	3						
C#CCCNC(=O)c1ccc(NN)cc1.Cl [probe 2, N-(but-3-yn-1-yl)-4-hydrazinylbenzamide hydrochloride]							19	5	16	4	7	3
